Measurements published in patent US5494895A, “Scorpion peptide margatoxin with immunosuppressant activity” (Merck & Co., Inc., priority 1993, dated 1996).
Peptide text beside a SMILES is read from it.

Tests used:
[1] = target: T1, Kv 1.3 (Rattus norvegicus, UniProt P15384); assay: [125I]ChTX binding to rat brain synaptic plasma membrane vesicles; details: low ionic strength (50 mM NaCl, 20 mM Tris-HCl, pH 7.4)
T1 construct: from tissue; host or cells: rat brain synaptic plasma membrane vesicles
Protocol: The potency of MgTX as an inhibitor of [^125 I]ChTX binding to Kv 1.3 was evaluated. The binding of [^125 I]ChTX to either rat brain synaptic plasma membrane vesicles (Kv 1.3 channel; Vazquez et al., J. Biol. Chem. 265, 15564, 1990) or bovine aortic smooth muscle sarcolemmal membranes (Maxi-K channel; Vazquez et al., J. Biol. Chem. 264, 20402, 1989) was determined as described. Briefly, membrane vesicles were incubated with [^125 I]ChTX in the presence or absence of other added agents, until equilibrium was achieved. Separation of bound from free ligand was accomplished by filtration through GF/C glass fiber filters (WHATMAN) that had been presoaked in 0.5% polyethyleneimine. Nonspecific binding was determined in the presence of 10 nM unlabeled ChTX. Data from saturation experiments were analyzed in a Scatchard representation to determine Kd and Bmax values. Triplicate samples were obtained for each experimental point and the data were averaged. The standard deviation of the mean was typically less than 2%. […] As an indication of selectivity, MgTX had no effect on [^125 I]ChTX binding to the Maxi-K channel in smooth muscle membranes at concentrations up to 10 nM.

[2] = target: T2, lymphocyte Kv 1.3 current (Homo sapiens, UniProt P22001); assay: Whole cell patch clamp of human peripheral T-lymphocytes; assay type: cell-based
T2 construct: endogenous in cells; host or cells: purified human peripheral blood T lymphocytes
Protocol: Ionic currents were recorded from human peripheral T-lymphocytes using the whole cell patch clamp technique described in Cahalan, M. and Neher, E., Meth. Enzymol. 207, 3, 1992. Purified human T cells were obtained as described in Leonard et al., Proc. Natl. Acad. Sci. U.S.A., 89, 10094, 1992, and recordings were carried out in a bath solution consisting of ^125 mM NaCl, 2.5 mM KCl, 1.0 mM CaCl2, 2.0 mM MgCl2, 10 mM HEPES (potassium salt), 10 mM glucose, 5 mM Na-pyruvate, and 0.05% BSA. The pH was adjusted to 7.2, and experiments were performed at room temperature (19°-22° C.). The intracellular (pipette) solution contained 140 mM K-glutamate, 1 mM MgCl2, 10 mM HEPES (potassium salt), and 0.1 mM EGTA. The pH was adjusted to 7.2. Patch pipettes were fabricated from DAGAN (Minneapolis, Minn.) LG-16 glass and had resistances of 2 to 8M.OMEGA.. Currents were measured using a DAGAN model 3900 patch clamp. Delivery of command voltages, data acquisition, and post-acquisition analysis were aided by a microcomputer running the Pclamp program suite (AXON INSTRUMENTS, Foster City, Calif.).
Methods for oocyte isolation and micro-injection were previously described in Goldin, Meth. Cell Biol, 36, 487, 1991, and Swanson and Folander, Meth. Enzymol., 207, 310, 1992. Currents expressed in oocytes were measured using a DAGAN model CA-1 two-electrode voltage clamp. Delivery of command voltages, data acquisition and post-acquisition analysis were aided by a microcomputer running the Pclamp program suite. The oocyte bathing solution consisted of 96 mM NaCl, 2.5 mM KCl, 1 mM MgCl2, 1.8 mM CaCl2, 10 mM HEPES, and 0.05% BSA. The pH was 7.2. All recordings were obtained at room temperature (19°-22° C.). The intracellular microelectrodes were fabricated from DAGAN LE-16 glass in a two-stage pull to a final resistance of 0.6 to 2M.OMEGA. and filled with 3M KCl. For both lymphocyte and oocyte experiments, peptides were diluted into the extracellular solution from 20 μM aqueous stock containing 100 mM NaCl. The presence of 0.05% BSA in the bath solution inhibited non-specific loss of dilute peptide toxins in the perfusion tubing.
Both native and recombinant MgTX were tested for their ability to block voltage gated K^+ channels. […] There was insufficient native toxin to carry out selectivity studies, so those were conducted using the recombinant material exclusively. […] The apparent IC50 for inhibition of the lymphocyte Kv 1.3 current is between 20 to 100 pM. […] As reported previously, MgTX has no effect on three different ChTX-sensitive, Ca^2+ -activated K^+ channels of lymphocytes, even at 100 nM (Leonard et al., Proc. Natl. Acad. Sci. U.S.A. 89, 10094, 1992).

[3] = target: T3, ISK (Rattus norvegicus, UniProt P15383); assay: Two-electrode voltage clamp of Xenopus oocytes expressing ISK; assay type: cell-based; details: 200 nM MgTX
T3 construct: expressed in transfected cells; host or cells: Xenopus oocytes injected with RNA transcribed in vitro from the cDNA clone
Protocol: Ionic currents were also recorded from Xenopus oocytes that had been injected with RNA transcribed in vitro from one or another of the following K^+ channel cDNA clones. Kv 1 (rat Kv 1.5), rat or human Kv 3 (rat Kv 1.3; human Kv 1.3), Kv 4 (rat Kv 3.1 ), rat ISK, Kv 2 (rat Kv 1.6) or Drosophila Shaker-H4. The names of the clones are listed as originally published, with the appropriate parenthetical designation according to the unified gene nomenclature proposed by Chandy. Shaker-H4 is a splice variant from the original Drosophila Shaker K^+ channel gene. Kv 1.3 is the ChTX-sensitive delayed rectifier current found in rat and human T lymphocytes (data from rat and human clones were indistinguishable and were combined) and it is a member of the Shaker family. Kv 1.5 is a channel cloned from rat (Swanson et al., Neuron, 4, 929, 1990) and is another member of the Shaker family. The Kv 1.5 transcript has been detected in pancreatic β cells as described in Philipson, et al., Proc. Natl. Acad. Sci. U.S.A. 88, 53, 1991. […] The ISK transcript has been detected in lymphocytes (Attali et al., J. Biol. Chem,. 267, 8650, 1992), but no evidence of the IKs current has been found in those cells.
Methods for oocyte isolation and micro-injection were previously described in Goldin, Meth. […] Currents expressed in oocytes were measured using a DAGAN model CA-1 two-electrode voltage clamp. […]

T2 sequence (P22001 whole entry): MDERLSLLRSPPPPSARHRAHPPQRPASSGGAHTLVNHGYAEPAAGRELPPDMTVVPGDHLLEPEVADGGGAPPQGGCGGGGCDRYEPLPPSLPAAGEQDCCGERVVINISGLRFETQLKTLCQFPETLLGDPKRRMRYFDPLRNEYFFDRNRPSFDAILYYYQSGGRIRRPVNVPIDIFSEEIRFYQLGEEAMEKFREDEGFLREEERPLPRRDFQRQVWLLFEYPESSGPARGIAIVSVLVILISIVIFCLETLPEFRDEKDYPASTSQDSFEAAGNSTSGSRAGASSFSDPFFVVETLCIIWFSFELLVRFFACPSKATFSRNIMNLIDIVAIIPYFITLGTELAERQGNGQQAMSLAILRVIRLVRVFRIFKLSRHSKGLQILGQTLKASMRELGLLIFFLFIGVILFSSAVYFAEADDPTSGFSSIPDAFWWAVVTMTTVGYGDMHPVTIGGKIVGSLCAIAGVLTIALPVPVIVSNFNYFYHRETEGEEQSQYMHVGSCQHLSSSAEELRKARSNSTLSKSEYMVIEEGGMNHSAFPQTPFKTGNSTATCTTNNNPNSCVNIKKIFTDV
T1 sequence (P15384 whole entry): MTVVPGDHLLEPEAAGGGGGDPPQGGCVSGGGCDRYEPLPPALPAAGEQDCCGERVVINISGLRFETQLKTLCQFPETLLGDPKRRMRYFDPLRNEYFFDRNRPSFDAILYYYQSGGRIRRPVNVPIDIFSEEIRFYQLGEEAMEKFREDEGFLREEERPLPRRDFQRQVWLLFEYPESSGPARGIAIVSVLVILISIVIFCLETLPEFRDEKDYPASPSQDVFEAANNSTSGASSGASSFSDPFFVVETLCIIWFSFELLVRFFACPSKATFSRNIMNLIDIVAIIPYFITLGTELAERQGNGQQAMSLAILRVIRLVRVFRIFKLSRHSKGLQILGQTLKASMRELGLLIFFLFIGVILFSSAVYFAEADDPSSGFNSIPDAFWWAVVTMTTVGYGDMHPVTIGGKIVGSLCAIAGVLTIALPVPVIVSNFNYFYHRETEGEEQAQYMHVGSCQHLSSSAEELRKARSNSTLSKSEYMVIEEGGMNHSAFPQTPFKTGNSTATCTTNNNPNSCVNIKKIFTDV
T3 sequence (P15383 whole entry): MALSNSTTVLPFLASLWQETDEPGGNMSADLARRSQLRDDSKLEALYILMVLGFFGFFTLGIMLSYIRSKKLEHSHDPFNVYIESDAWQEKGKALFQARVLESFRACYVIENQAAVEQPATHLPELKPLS
T3 sequence (P70057 whole entry partner): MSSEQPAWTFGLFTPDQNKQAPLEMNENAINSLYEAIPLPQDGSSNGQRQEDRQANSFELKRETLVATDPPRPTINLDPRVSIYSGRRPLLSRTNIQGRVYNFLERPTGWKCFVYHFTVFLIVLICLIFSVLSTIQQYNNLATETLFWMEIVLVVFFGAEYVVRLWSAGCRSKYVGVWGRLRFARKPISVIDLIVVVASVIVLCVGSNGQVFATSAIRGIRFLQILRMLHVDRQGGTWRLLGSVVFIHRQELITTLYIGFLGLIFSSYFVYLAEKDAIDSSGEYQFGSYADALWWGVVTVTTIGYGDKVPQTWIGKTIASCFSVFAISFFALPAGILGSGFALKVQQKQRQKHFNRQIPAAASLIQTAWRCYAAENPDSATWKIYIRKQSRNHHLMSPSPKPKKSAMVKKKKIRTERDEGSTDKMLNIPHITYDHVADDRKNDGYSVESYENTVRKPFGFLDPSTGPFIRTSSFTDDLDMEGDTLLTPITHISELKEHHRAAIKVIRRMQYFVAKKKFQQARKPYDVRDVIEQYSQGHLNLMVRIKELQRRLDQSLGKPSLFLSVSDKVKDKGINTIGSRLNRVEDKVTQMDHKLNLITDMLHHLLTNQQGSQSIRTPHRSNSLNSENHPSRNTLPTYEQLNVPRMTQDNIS

SMILES: CC[C@H](C)[C@H](NC(=O)[C@@H](N)[C@@H](C)O)C(=O)N[C@H](C(=O)N[C@@H](CC(N)=O)C(=O)N[C@H](C(=O)N[C@@H](CCCCN)C(=O)N[C@H]1CSSC[C@@H]2NC(=O)[C@H](CCCCN)NC(=O)[C@H](C)NC(=O)CNC(=O)[C@H](C)NC(=O)[C@H](CO)NC(=O)[C@H](CCC(N)=O)NC(=O)CNC(=O)[C@H](Cc3ccccc3)NC(=O)[C@H](CCC(N)=O)NC(=O)[C@H](C)NC(=O)[C@H](CCCCN)NC(=O)[C@@H]3CSSC[C@@H](C(=O)N[C@@H](Cc4ccc(O)cc4)C(=O)N4CCC[C@H]4C(=O)N[C@@H](Cc4c[nH]cn4)C(=O)O)NC(=O)[C@H](CCCCN)NC(=O)[C@H](CSSC[C@H](NC(=O)[C@H](CCC(N)=O)NC(=O)[C@H](CCCCN)NC(=O)[C@@H]4CCCN4C(=O)[C@H](CO)NC(=O)[C@H]([C@@H](C)O)NC1=O)C(=O)N[C@@H](CC(C)C)C(=O)N1CCC[C@H]1C(=O)N1CCC[C@H]1C(=O)N3)NC(=O)[C@H](CCCCN)NC(=O)CNC(=O)[C@H](CC(N)=O)NC(=O)[C@H](CCSC)NC2=O)C(C)C)[C@@H](C)CC [MgTX, Margatoxin] (HELM PEPTIDE1{T.I.I.N.V.K.C.T.S.P.K.Q.C.L.P.P.C.K.A.Q.F.G.Q.S.A.G.A.K.C.M.N.G.K.C.K.C.Y.P.H}$PEPTIDE1,PEPTIDE1,7:R3-29:R3|PEPTIDE1,PEPTIDE1,13:R3-34:R3|PEPTIDE1,PEPTIDE1,17:R3-36:R3$$$V2.0; N-terminus and C-terminus assumed; bridges inferred)
- Hill coefficient of inhibition of [125I]ChTX binding to brain membranes [1]: 1.7
- IC50 ([1]; read-out: IC50 for inhibition of [125I]ChTX binding to brain membranes): 0.036 nM
- t1/2 of recovery from block following removal from the bath [2]: > 20 min
- inhibition of the voltage activated K+ channel from human lymphocytes ([2]; at 1 nM): Complete inhibition
- potency relative to ChTX on the same preparation ([2]; lymphocyte Kv 1.3 current): five to ten-fold more potent
- IC50 ([2]; read-out: apparent IC50 for inhibition of the lymphocyte Kv 1.3 current): 0.02 to 0.1 nM
- sensitivity of cloned channel ISK to block [3]: completely insensitive
